Legend:
Assay in all cases: KinaseProfiler off-target kinase profiling
Assay type in all cases: biochemical
Settings in all cases: 10 μM, ATP near Km
[1] = tested on: BLK
Outline: (§1)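 Single-concentration screen: 10 μM compound, ATP set close to the Km of each individual kinase. Output is percent of control averaged over duplicate wells.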

[2] = target: Rsk1 (Homo sapiens (Human), UniProt Q15418)
Outline: as §1

[3] = target: PKAC-alpha (Homo sapiens (Human), UniProt P17612)
Outline: as §1

[4] = target: IRAK4 (Homo sapiens (Human), UniProt Q9NWZ3)
Sequence of IRAK4 (Q9NWZ3 whole entry): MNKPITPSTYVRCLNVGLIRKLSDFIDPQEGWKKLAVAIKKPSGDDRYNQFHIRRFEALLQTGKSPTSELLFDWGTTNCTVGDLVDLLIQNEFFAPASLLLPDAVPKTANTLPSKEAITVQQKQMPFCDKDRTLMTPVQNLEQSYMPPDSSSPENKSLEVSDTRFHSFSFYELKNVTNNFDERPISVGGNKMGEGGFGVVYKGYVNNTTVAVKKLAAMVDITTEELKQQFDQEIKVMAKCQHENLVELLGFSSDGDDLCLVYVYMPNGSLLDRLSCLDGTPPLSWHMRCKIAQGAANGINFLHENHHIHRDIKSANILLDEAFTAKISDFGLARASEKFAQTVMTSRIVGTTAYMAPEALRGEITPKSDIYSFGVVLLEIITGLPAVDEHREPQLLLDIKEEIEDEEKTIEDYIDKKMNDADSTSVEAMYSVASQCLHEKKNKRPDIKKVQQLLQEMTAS
Outline: as §1

[5] = target: AKT1 (Homo sapiens (Human), UniProt P31749)
Outline: as §1

[6] = target: PKCzeta (Homo sapiens (Human), UniProt Q05513)
Outline: as §1

[7] = target: DAPK2 (Homo sapiens (Human), UniProt Q9UIK4)
Outline: as §1

[8] = target: PASK (Homo sapiens (Human), UniProt Q96RG2)
Sequence of PASK (Q96RG2 whole entry): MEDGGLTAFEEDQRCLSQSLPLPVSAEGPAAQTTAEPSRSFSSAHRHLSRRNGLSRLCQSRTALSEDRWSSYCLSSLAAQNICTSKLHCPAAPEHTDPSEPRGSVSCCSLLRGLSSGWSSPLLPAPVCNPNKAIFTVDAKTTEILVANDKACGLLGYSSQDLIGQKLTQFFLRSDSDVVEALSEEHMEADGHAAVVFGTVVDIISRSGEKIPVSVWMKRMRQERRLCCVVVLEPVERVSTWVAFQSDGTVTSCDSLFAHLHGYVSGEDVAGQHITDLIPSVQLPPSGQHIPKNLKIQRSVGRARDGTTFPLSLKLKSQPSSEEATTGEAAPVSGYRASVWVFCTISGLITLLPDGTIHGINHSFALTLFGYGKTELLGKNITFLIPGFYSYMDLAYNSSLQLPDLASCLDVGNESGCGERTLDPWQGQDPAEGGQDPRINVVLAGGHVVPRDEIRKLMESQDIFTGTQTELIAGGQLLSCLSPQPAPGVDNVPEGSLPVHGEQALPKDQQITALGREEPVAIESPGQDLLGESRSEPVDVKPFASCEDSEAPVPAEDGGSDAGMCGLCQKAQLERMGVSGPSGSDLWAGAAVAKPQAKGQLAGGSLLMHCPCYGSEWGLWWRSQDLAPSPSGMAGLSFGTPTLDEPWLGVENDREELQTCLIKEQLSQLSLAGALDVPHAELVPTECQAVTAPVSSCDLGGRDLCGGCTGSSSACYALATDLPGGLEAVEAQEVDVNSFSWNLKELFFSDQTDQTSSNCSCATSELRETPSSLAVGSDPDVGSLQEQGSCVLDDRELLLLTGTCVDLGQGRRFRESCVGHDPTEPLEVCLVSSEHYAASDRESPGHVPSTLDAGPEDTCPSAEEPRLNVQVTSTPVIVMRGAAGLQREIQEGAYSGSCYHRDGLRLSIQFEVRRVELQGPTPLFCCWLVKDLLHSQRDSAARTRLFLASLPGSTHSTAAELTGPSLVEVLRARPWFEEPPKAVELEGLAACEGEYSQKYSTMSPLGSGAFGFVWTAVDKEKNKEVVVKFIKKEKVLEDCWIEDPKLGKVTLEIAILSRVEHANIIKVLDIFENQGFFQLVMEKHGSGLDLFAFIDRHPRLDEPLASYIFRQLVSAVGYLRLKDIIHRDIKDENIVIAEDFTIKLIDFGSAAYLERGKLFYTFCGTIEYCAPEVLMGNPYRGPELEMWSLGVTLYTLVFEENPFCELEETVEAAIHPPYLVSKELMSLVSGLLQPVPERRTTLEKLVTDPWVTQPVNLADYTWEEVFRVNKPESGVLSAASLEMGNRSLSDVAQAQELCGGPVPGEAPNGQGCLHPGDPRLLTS
Outline: as §1

[9] = target: MuSK (Homo sapiens (Human), UniProt O15146)
Outline: as §1

[10] = target: KIT (Homo sapiens (Human), UniProt P10721)
Outline: as §1

[11] = target: EphB1 (Homo sapiens (Human), UniProt P54762)
Outline: as §1

[12] = target: CDK5/p25 (Homo sapiens (Human), UniProt Q00535)
Outline: as §1

[13] = target: mTOR/FKBP12 (Homo sapiens (Human), UniProt P42345)
Outline: as §1

[14] = target: AMPK(A1/B1/G1) (Homo sapiens (Human), UniProt Q13131)
Outline: as §1

[15] = target: PKCiota (Homo sapiens (Human), UniProt P41743)
Outline: as §1

[16] = target: CAMK4 (Homo sapiens (Human), UniProt Q16566)
Sequence of CAMK4 (Q16566 whole entry): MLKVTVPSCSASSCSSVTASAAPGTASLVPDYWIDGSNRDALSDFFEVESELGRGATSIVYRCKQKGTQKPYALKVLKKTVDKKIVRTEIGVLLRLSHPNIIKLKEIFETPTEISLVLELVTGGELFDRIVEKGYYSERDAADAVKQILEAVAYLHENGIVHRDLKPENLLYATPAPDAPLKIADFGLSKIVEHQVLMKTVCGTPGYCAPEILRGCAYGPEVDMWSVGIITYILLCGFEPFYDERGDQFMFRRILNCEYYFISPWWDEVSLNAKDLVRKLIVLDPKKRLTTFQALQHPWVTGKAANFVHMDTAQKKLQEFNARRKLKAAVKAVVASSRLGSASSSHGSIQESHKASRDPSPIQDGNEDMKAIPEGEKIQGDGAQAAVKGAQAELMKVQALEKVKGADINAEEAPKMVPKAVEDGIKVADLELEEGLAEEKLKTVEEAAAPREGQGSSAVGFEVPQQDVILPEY
Outline: as §1

[17] = target: CSK (Homo sapiens (Human), UniProt P41240)
Outline: as §1

[18] = target: KDR (Homo sapiens (Human), UniProt P35968)
Outline: as §1

[19] = target: Tie2 (Homo sapiens (Human), UniProt Q02763)
Outline: as §1

[20] = target: EphB3 (Homo sapiens (Human), UniProt P54753)
Sequence of EphB3 (P54753 34-998): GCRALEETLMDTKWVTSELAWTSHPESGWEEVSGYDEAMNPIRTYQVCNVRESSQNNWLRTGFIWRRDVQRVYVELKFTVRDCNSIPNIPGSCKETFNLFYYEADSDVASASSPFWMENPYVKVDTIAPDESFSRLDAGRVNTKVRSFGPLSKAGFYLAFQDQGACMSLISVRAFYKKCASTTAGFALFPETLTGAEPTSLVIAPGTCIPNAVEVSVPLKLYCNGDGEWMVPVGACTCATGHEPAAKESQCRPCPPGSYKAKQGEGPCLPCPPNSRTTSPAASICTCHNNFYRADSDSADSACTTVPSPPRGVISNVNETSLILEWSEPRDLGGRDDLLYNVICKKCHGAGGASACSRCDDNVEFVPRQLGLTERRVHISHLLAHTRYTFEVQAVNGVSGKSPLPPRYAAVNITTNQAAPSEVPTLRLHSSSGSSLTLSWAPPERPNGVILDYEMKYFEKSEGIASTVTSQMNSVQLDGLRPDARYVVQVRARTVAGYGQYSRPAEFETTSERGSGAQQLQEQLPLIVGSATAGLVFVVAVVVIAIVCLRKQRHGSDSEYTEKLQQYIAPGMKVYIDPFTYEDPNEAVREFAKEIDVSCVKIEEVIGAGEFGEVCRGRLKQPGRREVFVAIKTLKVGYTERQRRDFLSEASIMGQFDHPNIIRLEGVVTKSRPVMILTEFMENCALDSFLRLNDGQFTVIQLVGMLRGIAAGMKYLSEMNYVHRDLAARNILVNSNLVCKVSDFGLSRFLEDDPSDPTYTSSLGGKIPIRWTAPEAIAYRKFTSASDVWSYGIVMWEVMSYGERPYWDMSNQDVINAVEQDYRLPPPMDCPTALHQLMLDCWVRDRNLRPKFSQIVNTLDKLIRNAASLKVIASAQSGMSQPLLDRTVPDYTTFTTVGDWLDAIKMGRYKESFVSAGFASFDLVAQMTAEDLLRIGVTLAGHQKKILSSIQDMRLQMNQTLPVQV
Outline: as §1

[21] = target: c-RAF (Homo sapiens (Human), UniProt P04049, Y340D/Y341D)
Outline: as §1

[22] = target: VRK2 (Homo sapiens (Human), UniProt Q86Y07)
Outline: as §1

[23] = target: SRPK1 (Homo sapiens (Human), UniProt Q96SB4)
Outline: as §1

[24] = target: MAP4K2 (Homo sapiens (Human), UniProt Q12851)
Outline: as §1

[25] = target: CAMK2d (Homo sapiens (Human), UniProt Q13557)
Outline: as §1

[26] = target: CK1delta (Homo sapiens (Human), UniProt P48730)
Sequence of CK1delta (P48730 whole entry): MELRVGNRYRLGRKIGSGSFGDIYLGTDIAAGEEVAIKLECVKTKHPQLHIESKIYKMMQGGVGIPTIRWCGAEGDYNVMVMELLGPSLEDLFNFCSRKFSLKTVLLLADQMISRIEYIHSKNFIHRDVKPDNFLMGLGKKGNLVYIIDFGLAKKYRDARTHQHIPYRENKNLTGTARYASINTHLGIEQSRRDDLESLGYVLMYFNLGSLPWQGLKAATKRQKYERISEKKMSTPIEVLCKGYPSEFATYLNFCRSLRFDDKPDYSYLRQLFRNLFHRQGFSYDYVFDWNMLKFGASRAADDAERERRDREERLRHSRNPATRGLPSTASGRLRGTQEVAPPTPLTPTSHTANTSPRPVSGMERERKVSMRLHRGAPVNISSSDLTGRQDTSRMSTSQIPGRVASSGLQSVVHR
Outline: as §1

[27] = target: PKCepsilon (Homo sapiens (Human), UniProt Q02156)
Outline: as §1

[28] = target: ITK (Homo sapiens (Human), UniProt Q08881)
Outline: as §1

[29] = target: TAK1 (Homo sapiens (Human), UniProt O43318)
Outline: as §1

[30] = target: Yes (Homo sapiens (Human), UniProt P07947)
Outline: as §1

[31] = target: Fyn (Homo sapiens (Human), UniProt P06241)
Outline: as §1

[32] = target: LIMK1 (Homo sapiens (Human), UniProt P53667)
Sequence of LIMK1 (P53667 whole entry): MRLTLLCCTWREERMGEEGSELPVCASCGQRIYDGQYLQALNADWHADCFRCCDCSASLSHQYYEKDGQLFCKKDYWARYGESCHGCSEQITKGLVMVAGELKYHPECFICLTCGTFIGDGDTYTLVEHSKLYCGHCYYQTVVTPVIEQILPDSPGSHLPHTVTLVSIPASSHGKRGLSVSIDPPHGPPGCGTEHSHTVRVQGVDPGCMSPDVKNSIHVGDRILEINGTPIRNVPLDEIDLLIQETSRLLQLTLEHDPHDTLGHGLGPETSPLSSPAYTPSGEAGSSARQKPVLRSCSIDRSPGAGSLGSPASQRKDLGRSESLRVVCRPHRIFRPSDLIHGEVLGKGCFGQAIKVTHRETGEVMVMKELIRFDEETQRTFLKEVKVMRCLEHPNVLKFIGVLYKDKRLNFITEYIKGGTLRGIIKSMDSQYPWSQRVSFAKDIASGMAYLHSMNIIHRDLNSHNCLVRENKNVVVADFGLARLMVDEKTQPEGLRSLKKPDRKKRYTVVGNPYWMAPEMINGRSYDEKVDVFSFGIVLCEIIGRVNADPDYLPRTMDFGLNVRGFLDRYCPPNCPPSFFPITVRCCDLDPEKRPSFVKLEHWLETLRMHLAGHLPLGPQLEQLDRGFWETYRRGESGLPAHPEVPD
Outline: as §1

[33] = target: PAK5 (Homo sapiens (Human), UniProt Q9P286)
Outline: as §1

[34] = target: IRAK1 (Homo sapiens (Human), UniProt P51617)
Outline: as §1

[35] = target: MYLK (Homo sapiens (Human), UniProt Q15746)
Outline: as §1

[36] = target: NEK7 (Homo sapiens (Human), UniProt Q8TDX7)
Outline: as §1

[37] = target: DAPK1 (Homo sapiens (Human), UniProt P53355)
Outline: as §1

[38] = target: NEK11 (Homo sapiens (Human), UniProt Q8NG66)
Outline: as §1

[39] = target: MAP3K5 (Homo sapiens (Human), UniProt Q99683)
Outline: as §1

[40] = target: FGFR2 (Homo sapiens (Human), UniProt P21802)
Outline: as §1

Sequence of Rsk1 (Q15418 whole entry): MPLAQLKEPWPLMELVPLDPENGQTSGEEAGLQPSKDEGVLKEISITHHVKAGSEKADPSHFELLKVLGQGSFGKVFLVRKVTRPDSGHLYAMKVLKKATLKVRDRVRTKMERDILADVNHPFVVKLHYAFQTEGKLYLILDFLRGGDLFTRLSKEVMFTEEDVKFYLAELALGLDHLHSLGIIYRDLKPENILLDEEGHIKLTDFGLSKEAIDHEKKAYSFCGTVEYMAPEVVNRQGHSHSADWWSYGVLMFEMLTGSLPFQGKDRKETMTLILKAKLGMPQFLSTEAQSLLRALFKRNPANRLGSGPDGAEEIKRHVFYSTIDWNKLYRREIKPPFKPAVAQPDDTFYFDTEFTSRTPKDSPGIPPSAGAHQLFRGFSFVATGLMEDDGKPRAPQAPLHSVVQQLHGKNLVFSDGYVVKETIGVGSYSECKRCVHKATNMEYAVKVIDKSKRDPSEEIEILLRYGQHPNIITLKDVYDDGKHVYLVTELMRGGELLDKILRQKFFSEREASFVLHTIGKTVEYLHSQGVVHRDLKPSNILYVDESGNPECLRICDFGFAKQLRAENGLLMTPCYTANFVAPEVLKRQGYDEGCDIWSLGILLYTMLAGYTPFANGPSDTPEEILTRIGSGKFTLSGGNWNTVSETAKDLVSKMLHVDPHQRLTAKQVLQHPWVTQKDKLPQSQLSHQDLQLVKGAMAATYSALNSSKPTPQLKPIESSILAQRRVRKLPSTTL

Avg POC [1] | Avg POC [2] | Avg POC [3] | Avg POC [4] | Avg POC [5] | Avg POC [6] | Avg POC [7] | Avg POC [8] | Avg POC [9] | Avg POC [10] | Avg POC [11] | Avg POC [12] | Avg POC [13] | Avg POC [14] | Avg POC [15] | Avg POC [16] | Avg POC [17] | Avg POC [18] | Avg POC [19] | Avg POC [20] | further results | SMILES
92 POC | 111 POC | 94.5 POC | 132 POC | 109.5 POC | 100 POC | 109 POC | 102.5 POC | 103.5 POC | 101.5 POC | 93.5 POC | 104 POC | 108.5 POC | 118 POC | 95 POC | 97.5 POC | 113 POC | 116.5 POC | 71.5 POC | 105.5 POC | Avg POC [21]: 103.5 POC; Avg POC [22]: 101.5 POC; Avg POC [23]: 97.5 POC; Avg POC [24]: 105.5 POC; Avg POC [25]: 91.5 POC; Avg POC [26]: 108 POC; Avg POC [27]: 103.5 POC; Avg POC [28]: 111 POC; Avg POC [29]: 93 POC; Avg POC [30]: 104 POC; Avg POC [31]: 97 POC; Avg POC [32]: 100 POC; Avg POC [33]: 103 POC; Avg POC [34]: 112.5 POC; Avg POC [35]: 86.5 POC; Avg POC [36]: 117 POC; Avg POC [37]: 97 POC; Avg POC [38]: 97 POC; Avg POC [39]: 97.5 POC; Avg POC [40]: 91.5 POC | COCCN1C[C@@H](NC(=O)Nc2c(C)c(-c3ccnc(C)c3)nn2-c2ccccc2)[C@H](c2ccc(F)c(F)c2)C1 [Example 2, 1-((3S,4R)-4-(3,4-difluorophenyl)-1-(2-methoxyethyl)pyrrolidin-3-yl)-3-(4-methyl-3-(2-methylpyridin-4-yl)-1-phenyl-1H-pyrazol-5-yl)urea]
91.5 POC | 111.5 POC | 109 POC | 110.5 POC | 98.5 POC | 99.5 POC | 107 POC | 100.5 POC | 98.5 POC | 101.5 POC | 97.5 POC | 99 POC | 113 POC | 106.5 POC | 104.5 POC | 83.5 POC | 103 POC | 99 POC | 71 POC | 138.5 POC | Avg POC [21]: 89 POC; Avg POC [22]: 109.5 POC; Avg POC [23]: 109.5 POC; Avg POC [24]: 99.5 POC; Avg POC [25]: 105.5 POC; Avg POC [26]: 108.5 POC; Avg POC [27]: 114.5 POC; Avg POC [28]: 101 POC; Avg POC [29]: 88 POC; Avg POC [30]: 55.5 POC; Avg POC [31]: 91.5 POC; Avg POC [32]: 98 POC; Avg POC [33]: 107 POC; Avg POC [34]: 108.5 POC; Avg POC [35]: 101.5 POC; Avg POC [36]: 106.5 POC; Avg POC [37]: 99.5 POC; Avg POC [38]: 91 POC; Avg POC [39]: 104 POC; Avg POC [40]: 103 POC | COCCN1C[C@@H](NC(=O)Nc2c(C)c(-c3cnc(C)nc3)nn2-c2ccccc2)[C@H](c2cc(F)cc(F)c2)C1 [Example 14, 1-((3S,4R)-4-(3,5-difluorophenyl)-1-(2-methoxyethyl)pyrrolidin-3-yl)-3-(4-methyl-3-(2-methylpyrimidin-5-yl)-1-phenyl-1H-pyrazol-5-yl)urea]
